In US20190015400A1, “Antifungal Compositions” (priority 2017, published 2019):

What was measured:
[1] = test system: J774A.1 cells; assay: Mammalian cytotoxicity assay, azoles and compound 2
Text: (§1) David K. Orren (University of Kentucky, Lexington, Ky.) and Prof. David J. Feola (University of Kentucky, Lexington, Ky.), respectively.

[2] = test system: C. glabrata ATCC 2001 (strain H) biofilm; assay: Biofilm disruption assay (XTT, SMIC90), POS and EBA; format: cell-based, Candida glabrata
Experimental: Biofilm disruption assays. […] Biofilm assays were performed in 96-well plates using XTT [2,3-bis(2-methoxy-4-nitro-5-sulfophenyl)-2H-tetrazolium-5-carboxanilide] to measure the viability of the biofilm as previously described. An overnight culture of yeast was grown at 35° C. in YEPD medium with shaking at 200 rpm. The overnight culture was diluted in RPMI 1640 medium to an OD600 between 0.12 and 0.15 to make a working stock. Working stock was transferred to the 96-well plate in 100 μL aliquots, leaving one column empty for the sterile control. The plates were incubated at 37° C. for 24 h to allow formation of the biofilm. The medium and planktonic cells from the plate were then aspirated. PBS was then used to wash any remaining planktonic cells off of the biofilm wells. 100 μL of PBS was aliquoted into wells and then removed. The wells were washed 3 times with PBS. […] Plates were incubated at 37° C. for 24 h. Finally, the plates were washed 3 times with PBS before adding 100 μL of XTT dye. The XTT was prepared by dissolving XTT at 0.5 mg/mL concentration in sterile PBS. Before adding to a plate, 1 μL of 10 mM menadione in acetone was added to 10 mL of the 0.5 mg/mL solution of XTT. After addition of XTT (containing menadione), the plates were incubated at 3 h at 37° C. in the dark. 80 μL of liquid from each well was transferred to a new plate. Plates were then read with a SpectraMax M5 plate reader (Molecular Devices, Sunnyvale, Calif., USA) for absorbance at 450 nm. For these experiments, we determined the sessile MIC (SMIC90), which is defined as the drug concentration required to inhibit the metabolic activity of biofilm by 90% compared to the growth control. The SMIC90 values were used to calculate the FICI as described above (TABLE 10). The plates used to determine the SMIC90 are provided in FIGS. 91A-H. Each assay was performed in duplicate.

[3] = test system: BEAS-2B cells; assay: Mammalian cytotoxicity assay, azoles and compound 2; format: cell-based, human
Text: as §1

[4] = test system: HEK-293 cells; assay: as above; format: cell-based, human
Text: as §1

[5] = POS 16 μg/mL + 32 μg/mL compound 2

In the case of `CC[C@@H]([C@H](C)O)n1ncn(-c2ccc(N3CCN(c4ccc(OC[C@@H]5CO[C@@](Cn6cncn6)(c6ccc(F)cc6F)C5)cc4)CC3)cc2)c1=O` [POS, posaconazole], the cell survival ([1]; drug alone at 8 μg/mL) is reported as 80±9%, the cell survival ([1]; drug alone at 16 μg/mL) is reported as about 46±3% and the SMIC90 combo ([2]; combination POS + EBA, SMIC90 of the labelled drug) is reported as 0.06 µg/mL. For the same molecule, the SMIC90 ([2]; drug alone) was over 32 µg/mL, the cell survival ([3]; POS 8 μg/mL + 32 μg/mL compound 2) was 71±11% and the cell survival [3, 5] was 38±6%. For the same molecule, the cell survival ([4]; POS 1 μg/mL + 32 μg/mL compound 2) was 80±8%, the cell survival [4, 5] was 40±6% and the cell survival ([4]; drug alone at 16 μg/mL) was “around 45±12%”.
